In the experiment the target is T1, hCCR4 (Homo sapiens, UniProt P51679).
T1 sequence (P51679 1-360): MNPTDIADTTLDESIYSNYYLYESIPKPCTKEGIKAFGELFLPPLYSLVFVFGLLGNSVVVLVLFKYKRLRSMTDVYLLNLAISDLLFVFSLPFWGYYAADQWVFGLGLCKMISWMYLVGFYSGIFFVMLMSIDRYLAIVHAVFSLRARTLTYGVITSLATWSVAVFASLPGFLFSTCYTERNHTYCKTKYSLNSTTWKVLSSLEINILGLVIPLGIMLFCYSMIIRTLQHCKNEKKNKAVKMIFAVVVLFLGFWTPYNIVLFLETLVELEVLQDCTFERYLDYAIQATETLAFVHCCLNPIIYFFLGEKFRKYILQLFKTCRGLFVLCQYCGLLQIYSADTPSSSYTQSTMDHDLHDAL
As to the kind of experiment: Calcium flux assay. The class given is cell-based. The conditions noted are these: Chem5-hCCR4 cells, CCL22 at EC80 of 1.5 nM, FLIPR Calcium 6 dye; read-out: Potency (IC50). The method, boiled down:
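Chem5 cells expressing hCCR4 were serum-starved for 2 h, loaded with Calcium 6 dye plus 2.5 mM probenecid, then given compound for 1 h at 37 °C (0.5% DMSO). CCL22 was added from a 7.5 nM working solution (5× EC80 of 1.5 nM). IC50 came from ΔF/Fmin (485/525 nm) by 4-parameter fit.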
In general terms: Calcium flux is commonly read through the fluorescence of an indicator in the cells.
In general, IC50 refers to the point on the concentration scale where inhibition reaches its midpoint. `COC(=O)NCCN1CCCC(C2CN(c3cnc4c(C)nn([C@H](C)c5ccc(Cl)cc5Cl)c4n3)C2)C1` (mixture of isomers) [Example 67, Methyl (2-((R)-3-(1-(1-((R)-1-(2,4-dichlorophenyl)ethyl)-3-methyl-1H-pyrazolo[3,4-b]pyrazin-6-yl)azetidin-3-yl)piperidin-1-yl)ethyl)carbamate and methyl (2-((S)-3-(1-(1-((R)-1-(2,4-dichlorophenyl)ethyl)-3-methyl-1H-pyrazolo[3,4-b]pyrazin-6-yl)azetidin-3-yl)piperidin-1-yl)ethyl)carbamate]: the IC50 is below 100 nM.

For the compound `Cc1nn([C@H](C)c2ccc(Cl)cc2Cl)c2nc(N3CC([C@@H]4CCCN(CC(=O)O)C4)C3)cnc12` (single isomer, unassigned) [Example 2], the half-inhibitory concentration (IC50) is above 500 nM.

Take `Cc1nn([C@H](C)c2ccc(Cl)cc2Cl)c2nc(N3CC([C@H]4CCCN(CC(=O)O)C4)C3)cnc12` (single isomer, unassigned) [Example 3]: the IC50 is above 500 nM.

With `Cc1nn([C@H](C)c2ccc(Cl)cc2Cl)c2nc(N3CC([C@@H]4CCCN(CCS(N)(=O)=O)C4)C3)cnc12` (single isomer, unassigned) [Example 5], the IC50 is above 500 nM.

Regarding `Cc1nn([C@H](C)c2ccc(Cl)cc2Cl)c2nc(N3CC([C@H]4CCCN(CCS(N)(=O)=O)C4)C3)cnc12` (single isomer, unassigned) [Example 6], the IC50 is below 100 nM.

Take `Cc1nn([C@H](C)c2ccc(Cl)cc2Cl)c2nc(N3CC([C@H]4CCCN(CCC(=O)O)C4)C3)cnc12` (single isomer, unassigned) [Example 8]: the IC50 is below 100 nM.

Regarding `Cc1nn([C@H](C)c2ccc(Cl)cc2Cl)c2nc(N3CC([C@@H]4CCCN(CCC(=O)O)C4)C3)cnc12` (single isomer, unassigned) [Example 9], the IC50 is above 500 nM.

As for `Cc1nn([C@H](C)c2ccc(Cl)cc2Cl)c2nc(N3CC([C@H]4CCCN(CCCC(=O)O)C4)C3)cnc12` (single isomer, unassigned) [Example 10], the IC50 is below 100 nM.

As for `Cc1nn([C@H](C)c2ccc(Cl)cc2Cl)c2nc(N3CC([C@@H]4CCCN(CCCC(=O)O)C4)C3)cnc12` (single isomer, unassigned) [Example 11], the IC50 was 100 to 500 nM.

For the compound `Cc1nn([C@H](C)c2ccc(Cl)cc2Cl)c2nc(N3CC([C@@H]4CCCN(CCC(N)=O)C4)C3)cnc12` (single isomer, unassigned) [Example 12], the IC50 was in the range of 100 to 500 nM.

Regarding `Cc1nn([C@H](C)c2ccc(Cl)cc2Cl)c2nc(N3CC([C@H]4CCCN(CCC(N)=O)C4)C3)cnc12` (single isomer, unassigned) [Example 13], the IC50 was below 100 nM.

In the case of `Cc1nn([C@H](C)c2ccc(Cl)cc2Cl)c2nc(N3CC([C@H]4CCCN(CCCO)C4)C3)cnc12` (single isomer, unassigned) [Example 14], the IC50 was below 100 nM.

`Cc1nn([C@H](C)c2ccc(Cl)cc2Cl)c2nc(N3CC([C@@H]4CCCN(CCCO)C4)C3)cnc12` (single isomer, unassigned) [Example 15]: the IC50 was in the range of 100 to 500 nM.

As for `C[C@H](c1ccc(Cl)cc1Cl)n1nc(C#N)c2ncc(N3CC([C@H]4CCCN(CCCC(=O)O)C4)C3)nc21` (single isomer, unassigned) [Example 18], the IC50 was below 100 nM.

In the case of `C[C@H](c1ccc(Cl)cc1Cl)n1nc(C#N)c2ncc(N3CC([C@@H]4CCCN(CCCC(=O)O)C4)C3)nc21` (single isomer, unassigned) [Example 19], the IC50 was below 100 nM.

Regarding `C[C@H](c1ccc(Cl)cc1Cl)n1nc(C#N)c2ncc(N3CC([C@@H]4CCCN(CCC(N)=O)C4)C3)nc21` (single isomer, unassigned) [Example 25], the IC50 was below 100 nM.

For `C[C@H](c1ccc(Cl)cc1Cl)n1nc(C#N)c2ncc(N3CC([C@H]4CCCN(CCC(N)=O)C4)C3)nc21` (single isomer, unassigned) [Example 26], the IC50 was below 100 nM.

As for `CC(O)CN1CCC[C@H](C2CN(c3cnc4c(C#N)nn([C@H](C)c5ccc(Cl)cc5Cl)c4n3)C2)C1` (single isomer, unassigned) [Example 28], the IC50 was below 100 nM.

For `CC(O)CN1CCC[C@H](C2CN(c3cnc4c(C#N)nn([C@H](C)c5ccc(Cl)cc5Cl)c4n3)C2)C1` (single isomer, unassigned) [Example 29], the IC50 is below 100 nM.

For `CC(O)CN1CCC[C@@H](C2CN(c3cnc4c(C#N)nn([C@H](C)c5ccc(Cl)cc5Cl)c4n3)C2)C1` (single isomer, unassigned) [Example 30], the IC50 was below 100 nM.

As for `CC(O)CN1CCC[C@@H](C2CN(c3cnc4c(C#N)nn([C@H](C)c5ccc(Cl)cc5Cl)c4n3)C2)C1` (single isomer, unassigned) [Example 31], the IC50 was below 100 nM.

In the case of `C[C@H](c1ccc(Cl)cc1Cl)n1nc(C(N)=O)c2ncc(N3CC([C@@H]4CCCN(CCCC(=O)O)C4)C3)nc21` (single isomer, unassigned) [Example 32], the IC50 fell in the range of 100 to 500 nM.

Turning to `C[C@H](c1ccc(Cl)cc1Cl)n1nc(C(N)=O)c2ncc(N3CC([C@H]4CCCN(CCCC(=O)O)C4)C3)nc21` (single isomer, unassigned) [Example 33], the IC50 is below 100 nM.

With `C[C@H](c1ccc(Cl)cc1Cl)n1nc(C#N)c2ncc(N3CC(C4CCCN(CCO)C4)C3)nc21` (single isomer, unassigned) [Example 35], the IC50 is below 100 nM.

In the case of `CC(c1ccc(Cl)cc1Cl)n1nc(C#N)c2ncc(N3CC([C@@H]4CCCN(CCO)C4)C3)nc21` (single isomer, unassigned) [Example 36], the IC50 was below 100 nM.

For the compound `Cc1nn([C@H](C)c2ccc(Cl)cc2Cl)c2nc(N3CC([C@H]4CCCN(CCO)C4)C3)ncc12` (single isomer, unassigned) [Example 38], the IC50 was below 100 nM.

`Cc1nn([C@H](C)c2ccc(Cl)cc2Cl)c2nc(N3CC([C@@H]4CCCN(CCO)C4)C3)ncc12` (single isomer, unassigned) [Example 39]: the IC50 was above 500 nM.

On to `C[C@H](c1ccc(Cl)cc1Cl)n1nc(C(F)(F)F)c2ncc(N3CC([C@H]4CCCN(CCO)C4)C3)nc21` (single isomer, unassigned) [Example 43], for which the IC50 was below 100 nM.

Regarding `C[C@H](c1ccc(Cl)cc1Cl)n1nc(C(F)(F)F)c2ncc(N3CC([C@@H]4CCCN(CCO)C4)C3)nc21` (single isomer, unassigned) [Example 44], the IC50 is 100 to 500 nM.

Consider `CC(C)C(=O)NCCN1CCC[C@@H](C2CN(c3cnc4c(C(F)(F)F)nn([C@H](C)c5ccc(Cl)cc5Cl)c4n3)C2)C1` (single isomer, unassigned) [Example 51], for which the concentration for half-maximal inhibition (IC50) fell in the range of 100 to 500 nM.

With `CC(C)C(=O)NCCN1CCC[C@H](C2CN(c3cnc4c(C(F)(F)F)nn([C@H](C)c5ccc(Cl)cc5Cl)c4n3)C2)C1` (single isomer, unassigned) [Example 52], the IC50 was below 100 nM.

For the compound `CC(=O)NCCN1CCC[C@@H](C2CN(c3cnc4c(C(F)(F)F)nn([C@H](C)c5ccc(Cl)cc5Cl)c4n3)C2)C1` (single isomer, unassigned) [Example 53], the IC50 was 100 to 500 nM.

On to `CC(=O)NCCN1CCC[C@H](C2CN(c3cnc4c(C(F)(F)F)nn([C@H](C)c5ccc(Cl)cc5Cl)c4n3)C2)C1` (single isomer, unassigned) [Example 54], for which the IC50 is below 100 nM.

These data come from patent US10604526B2, “Chemokine receptor modulators and uses thereof” (RAPT THERAPEUTICS, INC., priority 2016, dated 2020).
